From EP4194453A1, “PYRAZINE COMPOUNDS FOR THE CONTROL OF INVERTEBRATE PESTS” (BASF SE, priority 2021, dated 2023)

Columns and labels:
Format in all cases: in vivo
[1] = system: Southern armyworm (Spodoptera eridania), 2nd instar larvae; experiment: Southern armyworm foliar spray test on lima bean plants; details: 96 h, 4 days after treatment, in comparison with untreated controls
Protocol: The active compounds were formulated by a Tecan liquid handler in 100% cyclohexanone as a 10,000 ppm solution supplied in tubes. The 10,000 ppm solution was serially diluted in 100% cyclohexanone to make interim solutions. These served as stock solutions for which final dilutions were made by the Tecan in 50% acetone:50% water (v/v) into 10 or 20ml glass vials. A nonionic surfactant (Kinetic®) was included in the solution at a volume of 0.01% (v/v). The vials were then inserted into an automated electrostatic sprayer equipped with an atomizing nozzle for application to plants/insects. Lima bean plants (variety Sieva) were grown 2 plants to a pot and selected for treatment at the 1st true leaf stage. Test solutions were sprayed onto the foliage by an auto-mated electrostatic plant sprayer equipped with an atomizing spray nozzle. The plants were dried in the sprayer fume hood and then removed from the sprayer. Each pot was placed into perforated plastic bags with a zip closure. Ten to 11 armyworm larvae were placed into the bag and the bags zipped closed. Test plants were maintained in a growth room at about 25°C and about 20-40% relative humidity for 4 days, avoiding direct exposure to fluorescent light (14:10 light:dark photoperiod) to prevent trapping of heat inside the bags. Mortality and reduced feeding were assessed 4 days after treatment, compared to untreated control plants.

[2] = system: Diamond back moth (Plutella xylostella); experiment: Diamond back moth leaf-dip test on cabbage leaves; details: 3rd instar larvae, 72 hours after treatment, in comparison with untreated controls
Protocol: The active compound was dissolved at the desired concentration in a mixture of 1:1 (vol:vol) distilled water: acetone. Surfactant (Kinetic HV) was added at a rate of 0.01% (vol/vol). The test solution was prepared on the day of use.
Leaves of cabbage were dipped in test solution and air-dried. Treated leaves were placed in petri dishes lined with moist filter paper and inoculated with ten 3rd instar larvae. Mortality was recorded 72 hours after treatment. Feeding damages were also recorded using a scale of 0-100%.

[3] = system: Green Peach Aphid (Myzus persicae); experiment: Green peach aphid systemic test, artificial diet in microtiter plates; details: 72 h, adult aphids, 3 days, in comparison with untreated controls
From the text: For evaluating control of green peach aphid (Myzus persicae) through systemic means the test unit consisted of 96-well-microtiter plates containing liquid artificial diet under an artificial mem brane.
The compounds were formulated using a solution containing 75% v/v water and 25% v/v DMSO. Different concentrations of formulated compounds were pipetted into the aphid diet, using a custom built pipetter, at two replications.
After application, 5-8 adult aphids were placed on the artificial membrane inside the microtiter plate wells. The aphids were then allowed to suck on the treated aphid diet and incubated at about 23 ± 1°C and about 50 ± 5 % relative humidity for 3 days. Aphid mortality and fecundity was then visually assessed.

[4] = system: Tobacco budworm (Heliothis virescens); experiment: Tobacco budworm insect diet test in microtiter plates; details: 120 h, egg and larval mortality, 5 days, in comparison with untreated controls
Protocol: For evaluating control of tobacco budworm (Heliothis virescens) the test unit consisted of 96-well-microtiter plates containing an insect diet and 15-25 H. virescens eggs.
The compounds were formulated using a solution containing 75% v/v water and 25% v/v DMSO. Different concentrations of formulated compounds were sprayed onto the insect diet at 10 µl using a custom-built micro atomizer, at two replications.
After application, microtiter plates were incubated at about 28 ± 1°C and about 80 ± 5 % relative humidity for 5 days. Egg and larval mortality was then visually assessed.

[5] = system: Boll weevil (Anthonomus grandis); experiment: Boll weevil insect diet test in microtiter plates; details: 120 h, egg and larval mortality, 5 days, in comparison with untreated controls
Protocol: For evaluating control of boll weevil (Anthonomus grandis) the test unit consisted of 96-well-microtiter plates containing an insect diet and 5-10 A. grandis eggs.
The compounds were formulated using a solution containing 75% v/v water and 25% v/v DMSO. Different concentrations of formulated compounds were sprayed onto the insect diet at 5µl, using a custom-built micro atomizer, at two replications.
After application, microtiter plates were incubated at about 25 ± 1°C and about 75 ± 5 % relative humidity for 5 days. Egg and larval mortality was then visually assessed.

[6] = system: Orchid thrips (Dichromothrips corbetti); experiment: Orchid thrips floral-immersion test; details: adult thrips, 72 hours after treatment, in comparison with untreated controls
Protocol: Dichromothrips corbetti adults used for bioassay were obtained from a colony maintained continuously under laboratory conditions. For testing purposes, the test compound is diluted in a 1:1 mixture of acetone:water (vol:vol), plus Kinetic HV at a rate of 0.01% v/v.
Thrips potency of each compound was evaluated by using a floral-immersion technique. All petals of individual, intact orchid flowers were dipped into treatment solution and allowed to dry in Petri dishes. Treated petals were placed into individual re-sealable plastic along with about 20 adult thrips. All test arenas were held under continuous light and a temperature of about 28°C for duration of the assay. After 3 days, the numbers of live thrips were counted on each petal. The percent mortality was recorded 72 hours after treatment.

Cc1nc(-c2nccnc2C(C)NC(=O)c2cc(C(F)(F)F)cc(C(F)(F)F)c2)no1 (stereo not drawn) [I-1, N-[1-[3-(5-methyl-1,2,4-oxadiazol-3-yl)pyrazin-2-yl]ethyl]-3,5-bis(trifluoromethyl)benzamide]
≥ 75%: mortality at 300 ppm [1] | mortality at 300 ppm [2] | mortality at 2500 ppm [3] | mortality at 2500 ppm [4] | mortality at 2500 ppm [5]

CCN(C)C(=O)c1nc(-c2nccnc2C(C)NC(=O)c2cc(C(F)(F)F)cc(C(F)(F)F)c2)no1 (stereo not drawn) [I-2, 3-[3-[1-[[3,5-bis(trifluoromethyl)benzoyl]amino]ethyl]pyrazin-2-yl]-N-ethyl-N-methyl-1,2,4-oxadiazole-5-carboxamide]
≥ 75%: mortality at 300 ppm [2] | mortality at 2500 ppm [4] | mortality at 2500 ppm [5]

Cc1nc(-c2nccnc2C(C)N(CC2CC2)C(=O)c2cc(C(F)(F)F)cc(C(F)(F)F)c2)no1 (stereo not drawn) [I-3, N-(cyclopropylmethyl)-N-[1-[3-(5-methyl-1,2,4-oxadiazol-3-yl)pyrazin-2-yl]ethyl]-3,5-bis(trifluoromethyl)benzamide]
≥ 75%: mortality at 300 ppm [1] | mortality at 300 ppm [2] | mortality at 2500 ppm [3] | mortality at 300 ppm [6] | mortality at 2500 ppm [5]

CNC(=O)c1nc(-c2nccnc2C(C)N(CC2CC2)C(=O)c2cc(C(F)(F)F)cc(C(F)(F)F)c2)no1 (stereo not drawn) [I-4, 3-[3-[1-[[3,5-bis(trifluoromethyl)benzoyl]-(cyclopropylmethyl)amino]ethyl]pyrazin-2-yl]-N-methyl-1,2,4-oxadiazole-5-carboxamide]
≥ 75%: mortality at 2500 ppm [4] | mortality at 2500 ppm [5]
